*1 amine or outer side, *2 acyl side, *3 side chain or, on linkers, in order; H or OH if unused. Where a SMILES comes first, the peptide text is derived from it. Side-chain parts run from the residue outwards. [ ]: non-standard residue; d: D form. The star is where a group is joined. C20 diacid = O=C(O)CCCCCCCCCCCCCCCCCCC(=O)*; αMePhe(2-F) = C[C@](N)(Cc1ccccc1F)C(=O)O; γGlu = O=C(O)[C@H](CCC(=O)[*:2])N[*:1]; X36 = O=C(C1(c2ccc(Cl)cc2)CCCCC1)*; X27 = O=C1CC(C(=O)*)(c2ccccc2)CN1; X33 = CCC(CC)(C(=O)*)c1ccccc1; X50 = CC(C)(N*)c1ccc(F)c(F)c1; Suc = O=C(CCC(=O)[*:2])[*:1]; AEEA = NCCOCCOCC(=O)O; Aib = CC(C)(N)C(=O)O; βAla = NCCC(=O)O
Columns and labels:
Assay type in all cases: cell-based
[1] = target: T1, GLP-1 receptor (Homo sapiens, UniProt P43220); test: HitHunter cAMP assay, GLP-1 receptor; conditions: for EC50: CHO cells stably expressing human GLP-1 receptor, cAMP accumulation, 30 min, read-out: EC50 GLP-1R; for Emax: CHO cells, cAMP, normalized to maximum signal from GLP-1 (high) and DMSO (low), read-out: Emax GLP-1R
T1 sequence (P43220 24-463): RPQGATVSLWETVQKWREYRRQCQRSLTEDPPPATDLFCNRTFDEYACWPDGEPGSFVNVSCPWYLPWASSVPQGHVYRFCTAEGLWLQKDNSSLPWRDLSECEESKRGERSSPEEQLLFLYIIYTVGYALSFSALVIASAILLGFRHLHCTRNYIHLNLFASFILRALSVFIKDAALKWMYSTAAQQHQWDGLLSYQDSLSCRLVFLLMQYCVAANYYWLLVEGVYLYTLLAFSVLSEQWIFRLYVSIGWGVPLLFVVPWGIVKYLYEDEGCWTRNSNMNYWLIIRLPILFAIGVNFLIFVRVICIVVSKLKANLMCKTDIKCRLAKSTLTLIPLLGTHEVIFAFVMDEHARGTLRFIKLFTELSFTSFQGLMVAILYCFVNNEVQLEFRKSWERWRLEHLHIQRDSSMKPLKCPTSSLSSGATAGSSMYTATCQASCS

[2] = target: T1, GLP-1 receptor; test: PathHunter β-arrestin assay, GLP-1 receptor; design: host or cells: PathHunter CHO-K1 GLP1R β-Arrestin Cell Line; conditions: β-arrestin-2 recruitment, PathHunter CHO-K1 GLP1R β-Arrestin Cell Line, 90 min at 37° C.; normalized to GLP-1; read-out: GLP-1R β Arrestin EC50
[3] = target: T2, GIP receptor (Homo sapiens, UniProt P48546); test: HitHunter cAMP assay, GIP receptor; conditions: for EC50: CHO cells stably expressing GIP receptor, cAMP accumulation, 30 min, read-out: EC50 GIP-1R; for Emax: CHO cells, cAMP, normalized to maximum signal from GIP (high) and DMSO (low), read-out: Emax GIP-1R
T2 sequence (P48546 22-466): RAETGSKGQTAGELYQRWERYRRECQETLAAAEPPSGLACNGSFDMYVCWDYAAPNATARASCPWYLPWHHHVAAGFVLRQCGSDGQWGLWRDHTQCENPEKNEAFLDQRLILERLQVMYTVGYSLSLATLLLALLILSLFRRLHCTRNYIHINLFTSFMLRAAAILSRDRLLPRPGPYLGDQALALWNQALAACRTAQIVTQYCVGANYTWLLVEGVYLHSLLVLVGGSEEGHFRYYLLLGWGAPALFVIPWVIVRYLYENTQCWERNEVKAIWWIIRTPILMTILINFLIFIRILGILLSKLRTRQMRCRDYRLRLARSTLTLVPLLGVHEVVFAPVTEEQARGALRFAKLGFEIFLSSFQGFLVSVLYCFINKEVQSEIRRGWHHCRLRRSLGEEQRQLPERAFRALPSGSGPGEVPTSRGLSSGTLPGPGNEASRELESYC

[4] = target: T2, GIP receptor; test: PathHunter β-arrestin assay, GIP receptor; design: host or cells: PathHunter CHO-K1 GIPR β-Arrestin Cell Line; conditions: β-arrestin-2 recruitment, PathHunter CHO-K1 GIPR β-Arrestin Cell Line, 90 min at 37° C.; normalized to GIP; read-out: GIPR β Arrestin EC50

SMILES	EC50 [1] [µM]	Emax [1] [%]	EC50 [2] [µM]	EC50 [3] [µM]	Emax [3] [%]	EC50 [4] [µM]
CC[C@H](C)[C@H](NC(=O)[C@H](CO)NC(=O)[C@H](CCCCNC(=O)COCCOCCNC(=O)COCCOCCNC(=O)CC[C@H](NC(=O)CCCCCCCCCCCCCCCCCCC(=O)O)C(=O)O)NC(=O)[C@H](CC(=O)O)NC(=O)[C@H](CO)NC(=O)[C@@H](NC(=O)[C@H](Cc1ccccc1)NC(=O)[C@@H](NC(=O)CNC(=O)[C@H](CCC(=O)O)NC(=O)CCNC(=O)[C@@]1(c2ccccc2)CNC(=O)C1)[C@@H](C)O)[C@@H](C)O)C(=O)N[C@@H](Cc1ccc(O)cc1)C(=O)N[C@@H](CC(C)C)C(=O)N[C@@H](CC(=O)O)C(=O)N[C@@H](CCCCN)C(=O)N[C@@H](CCC(N)=O)C(=O)N[C@@H](C)C(=O)N[C@@H](C)C(=O)NC(C)(C)C(=O)N[C@@H](CCC(=O)O)C(=O)N[C@@H](Cc1ccccc1)C(=O)N[C@H](C(=O)N[C@@H](CC(N)=O)C(=O)N[C@@H](Cc1c[nH]c2ccccc12)C(=O)N[C@@H](CC(C)C)C(=O)N[C@@H](CC(C)C)C(=O)N[C@@H](C)C(=O)NCC(=O)NCC(=O)N1CCC[C@H]1C(=O)N[C@@H](CO)C(=O)N[C@@H](CO)C(=O)NCC(=O)N[C@@H](C)C(=O)N1CCC[C@H]1C(=O)N1CCC[C@H]1C(=O)N1CCC[C@H]1C(=O)N[C@@H](CO)C(N)=O)C(C)C (single isomer, unassigned) [Compound 123]	0.01 to 0.1	95	> 1	0.01 to 0.1	103	> 1
CC[C@H](C)[C@H](NC(=O)[C@H](CC(C)C)NC(=O)[C@H](Cc1c[nH]c2ccccc12)NC(=O)[C@H](CCC(N)=O)NC(=O)[C@@H](NC(=O)[C@H](Cc1ccccc1)NC(=O)[C@H](C)NC(=O)[C@H](CCCCNC(=O)COCCOCCNC(=O)COCCOCCNC(=O)CC[C@H](NC(=O)CCCCCCCCCCCCCCCCCCC(=O)O)C(=O)O)NC(=O)[C@H](CCC(N)=O)NC(=O)[C@H](C)NC(=O)[C@@H](NC(=O)[C@H](CCCCN)NC(=O)[C@H](CC(=O)O)NC(=O)[C@H](CC(C)C)NC(=O)C(C)(C)NC(=O)[C@@H](NC(=O)[C@H](CO)NC(=O)[C@H](Cc1ccc(O)cc1)NC(=O)[C@H](CC(=O)O)NC(=O)[C@H](CO)NC(=O)[C@@H](NC(=O)[C@H](Cc1ccccc1)NC(=O)[C@@H](NC(=O)CNC(=O)[C@H](CCC(=O)O)NC(=O)CCC(=O)NC(C)(C)c1ccc(F)c(F)c1)[C@@H](C)O)[C@@H](C)O)[C@@H](C)CC)[C@@H](C)CC)C(C)C)C(=O)N[C@@H](C)C(=O)NCC(=O)NCC(=O)N1CCC[C@H]1C(=O)N[C@@H](CO)C(=O)N[C@@H](CO)C(=O)NCC(=O)N[C@@H](C)C(=O)N1CCC[C@H]1C(=O)N1CCC[C@H]1C(=O)N1CCC[C@H]1C(=O)N[C@@H](CO)C(N)=O [Compound 280] ({X50-Suc}-EGTFTSDYSI[Aib]LDKIAQK([AEEA-AEEA-γGlu-C20 diacid])AFVQWLIAGGPSSGAPPPS-NH2)	0.001 to 0.01	90	> 1	0.001 to 0.01	114	> 1
CC[C@H](C)[C@H](NC(=O)[C@H](CO)NC(=O)[C@H](Cc1ccc(O)cc1)NC(=O)[C@H](CC(=O)O)NC(=O)[C@H](CO)NC(=O)[C@@H](NC(=O)[C@H](Cc1ccccc1)NC(=O)[C@@H](NC(=O)CNC(=O)[C@H](CCC(=O)O)NC(=O)CCNC(=O)C1(c2ccc(Cl)cc2)CCCC1)[C@@H](C)O)[C@@H](C)O)C(=O)N[C@@H](Cc1ccc(O)cc1)C(=O)N[C@@H](CC(C)C)C(=O)N[C@@H](CC(=O)O)C(=O)N[C@@H](CCCCN)C(=O)N[C@@H](CCC(N)=O)C(=O)N[C@@H](C)C(=O)N[C@@H](C)C(=O)NC(C)(C)C(=O)N[C@@H](CCC(=O)O)C(=O)N[C@@H](Cc1ccccc1)C(=O)N[C@H](C(=O)N[C@@H](CC(N)=O)C(=O)N[C@@H](Cc1c[nH]c2ccccc12)C(=O)N[C@@H](CC(C)C)C(=O)N[C@@H](CC(C)C)C(=O)N[C@@H](C)C(=O)NCC(=O)NCC(=O)N1CCC[C@H]1C(=O)N[C@@H](CO)C(=O)N[C@@H](CO)C(=O)NCC(=O)N[C@@H](C)C(=O)N1CCC[C@H]1C(=O)N1CCC[C@H]1C(=O)N1CCC[C@H]1C(=O)N[C@@H](CO)C(=O)N[C@@H](CCCCNC(=O)COCCOCCNC(=O)COCCOCCNC(=O)CC[C@H](NC(=O)CCCCCCCCCCCCCCCCCCC(=O)O)C(=O)O)C(N)=O)C(C)C [Compound 155]	0.001 to 0.01	101	> 1	0.01 to 0.1	104	> 1
CC[C@H](C)[C@H](NC(=O)[C@H](CC(C)C)NC(=O)[C@H](Cc1c[nH]c2ccccc12)NC(=O)[C@H](CCC(N)=O)NC(=O)[C@@H](NC(=O)[C@H](Cc1ccccc1)NC(=O)[C@H](C)NC(=O)[C@H](CCCCNC(=O)COCCOCCNC(=O)COCCOCCNC(=O)CC[C@H](NC(=O)CCCCCCCCCCCCCCCCCCC(=O)O)C(=O)O)NC(=O)[C@H](CCC(N)=O)NC(=O)[C@H](C)NC(=O)[C@@H](NC(=O)[C@H](CCCCN)NC(=O)[C@H](CC(=O)O)NC(=O)[C@H](CC(C)C)NC(=O)C(C)(C)NC(=O)[C@@H](NC(=O)[C@H](CO)NC(=O)[C@H](Cc1ccc(O)cc1)NC(=O)[C@H](CC(=O)O)NC(=O)[C@H](CO)NC(=O)[C@@H](NC(=O)[C@H](Cc1ccccc1)NC(=O)[C@@H](NC(=O)CNC(=O)[C@H](CCC(=O)O)NC(=O)CCNC(=O)C1(c2ccc(Cl)cc2)CCCCC1)[C@@H](C)O)[C@@H](C)O)[C@@H](C)CC)[C@@H](C)CC)C(C)C)C(=O)N[C@@H](C)C(=O)NCC(=O)NCC(=O)N1CCC[C@H]1C(=O)N[C@@H](CO)C(=O)N[C@@H](CO)C(=O)NCC(=O)N[C@@H](C)C(=O)N1CCC[C@H]1C(=O)N1CCC[C@H]1C(=O)N1CCC[C@H]1C(=O)N[C@@H](CO)C(N)=O [Compound 174] ({X36-βAla}-EGTFTSDYSI[Aib]LDKIAQK([AEEA-AEEA-γGlu-C20 diacid])AFVQWLIAGGPSSGAPPPS-NH2)	0.01 to 0.1	93	> 1	0.01 to 0.1	104	> 1
CC[C@H](C)[C@H](NC(=O)[C@H](CC(C)C)NC(=O)[C@H](Cc1c[nH]c2ccccc12)NC(=O)[C@H](CCC(N)=O)NC(=O)[C@@H](NC(=O)[C@H](Cc1ccccc1)NC(=O)[C@H](C)NC(=O)[C@H](CCCCNC(=O)COCCOCCNC(=O)COCCOCCNC(=O)CC[C@H](NC(=O)CCCCCCCCCCCCCCCCCCC(=O)O)C(=O)O)NC(=O)[C@H](CCC(N)=O)NC(=O)[C@H](C)NC(=O)[C@@H](NC(=O)[C@H](CCCCN)NC(=O)[C@H](CC(=O)O)NC(=O)[C@H](CC(C)C)NC(=O)C(C)(C)NC(=O)[C@@H](NC(=O)[C@H](CO)NC(=O)[C@H](Cc1ccc(O)cc1)NC(=O)[C@H](CC(=O)O)NC(=O)[C@H](CO)NC(=O)[C@@H](NC(=O)[C@H](Cc1ccccc1)NC(=O)[C@@H](NC(=O)CNC(=O)[C@H](CCC(=O)O)NC(=O)CCNC(=O)C(CC)(CC)c1ccccc1)[C@@H](C)O)[C@@H](C)O)[C@@H](C)CC)[C@@H](C)CC)C(C)C)C(=O)N[C@@H](C)C(=O)NCC(=O)NCC(=O)N1CCC[C@H]1C(=O)N[C@@H](CO)C(=O)N[C@@H](CO)C(=O)NCC(=O)N[C@@H](C)C(=O)N1CCC[C@H]1C(=O)N1CCC[C@H]1C(=O)N1CCC[C@H]1C(=O)N[C@@H](CO)C(N)=O [Compound 218] ({X33-βAla}-EGTFTSDYSI[Aib]LDKIAQK([AEEA-AEEA-γGlu-C20 diacid])AFVQWLIAGGPSSGAPPPS-NH2)	0.0001 to 0.001	103	> 1	0.0001 to 0.001	100	< 1
CC[C@H](C)[C@H](NC(=O)[C@H](CO)NC(=O)[C@H](CCCCNC(=O)COCCOCCNC(=O)COCCOCCNC(=O)CC[C@H](NC(=O)CCCCCCCCCCCCCCCCCCC(=O)O)C(=O)O)NC(=O)[C@H](CC(=O)O)NC(=O)[C@H](CO)NC(=O)[C@@H](NC(=O)[C@](C)(Cc1ccccc1F)NC(=O)[C@@H](NC(=O)CNC(=O)[C@H](CCC(=O)O)NC(=O)CCNC(=O)C1(c2ccccc2)CNC(=O)C1)[C@@H](C)O)[C@@H](C)O)C(=O)N[C@@H](Cc1ccc(O)cc1)C(=O)N[C@@H](CC(C)C)C(=O)N[C@@H](CC(=O)O)C(=O)N[C@@H](CCCCN)C(=O)N[C@@H](CCC(N)=O)C(=O)N[C@@H](C)C(=O)N[C@@H](C)C(=O)NC(C)(C)C(=O)N[C@@H](CCC(=O)O)C(=O)N[C@@H](Cc1ccccc1)C(=O)N[C@H](C(=O)N[C@@H](CC(N)=O)C(=O)N[C@@H](Cc1c[nH]c2ccccc12)C(=O)N[C@@H](CC(C)C)C(=O)N[C@@H](CC(C)C)C(=O)N[C@@H](C)C(=O)NCC(=O)NCC(=O)N1CCC[C@H]1C(=O)N[C@@H](CO)C(=O)N[C@@H](CO)C(=O)NCC(=O)N[C@@H](C)C(=O)N1CCC[C@H]1C(=O)N1CCC[C@H]1C(=O)N1CCC[C@H]1C(=O)N[C@@H](CO)C(N)=O)C(C)C (stereo partly drawn) [Compound 138] ({X27-βAla}-EGT[αMePhe(2-F)]TSDK([AEEA-AEEA-γGlu-C20 diacid])SIYLDKQAA[Aib]EFVNWLLAGGPSSGAPPPS-NH2)	< 0.0001	100	< 1	0.0001 to 0.001	100	< 1
